IC50, ΔTm and inhibition data for five molecules are collected here from ChEMBL document CHEMBL4261582, “Natural products as inhibitors of Leishmania major dihydroorotate dehydrogenase” (Eur J Med Chem, 2018).

Molecules are shown by their SMILES. Where only a bound is given, the exact number is not on record here.

One experiment concerns Leishmania amazonensis. Briefly: Antileishmanial activity against Leishmania amazonensis MHOM/BR/77/LTB 0016 promastigotes after 72 hrs by MTT assay. Particulars: MHOM/BR/77/LTB 0016, 72 h. It is filed as functional, organism-based. For orientation: Tetrazolium assays rely on reduction of a dye to a coloured formazan, in cell work by metabolically active cells.
`CN1[C@@H]2C[C@H](OC(=O)[C@H](CO)c3ccccc3)C[C@H]1[C@@H]1O[C@@H]12` displayed a half-inhibitory concentration (IC50) greater than 100 µM.

The subject of a further experiment is Trypanosoma cruzi. Kind of experiment: Antitrypanosomal activity against Trypanosoma cruzi trypomastigotes. It is filed as functional, organism-based.
Details: not given
Consider `O=C(/C=C/c1ccc(O)c(O)c1)O[C@H]1[C@H](O)C[C@](O)(C(=O)O)C[C@H]1OC(=O)/C=C/c1ccc(O)c(O)c1`, for which the IC50 was 286 µM.

For `C=C(C)C(=O)O[C@H]1C[C@@]2(C)OC(=CC2=O)/C(C)=C\[C@H]2OC(=O)C(=C)[C@H]12`, the IC50 stood at 514 µM.

With `C=C(C)C(=O)O[C@H]1C[C@@]2(C)OC(=CC2=O)/C(CO)=C\[C@H]2OC(=O)C(=C)[C@H]12` [GOIAZENSOLIDE], the IC50 turned out to be 1.08 µM.

In a further experiment the test system is Leishmania amazonensis. Briefly: Antileishmanial activity against Leishmania amazonensis MHOM/77BR/LTB0016 promastigotes after 72 hrs by MTT assay. Particulars: MHOM/77BR/LTB0016, 72 h. In kind it is functional, organism-based.
`O=C(O)/C=C/c1ccc(O)c(O)c1` [CAFFEIC ACID]: the IC50 amounted to 5.2 µM.

The subject of the next experiment is Leishmania amazonensis. Kind of experiment: Antileishmanial activity against Leishmania amazonensis MHOM/77BR/LTB0016 amastigotes infected in mouse peritoneal macrophages after 48 hrs by Giemsa staining-based assay. In kind it is functional, organism-based. Particulars: MHOM/77BR/LTB0016, 48 h.
On to `O=C(O)/C=C/c1ccc(O)c(O)c1` [CAFFEIC ACID], for which the IC50 worked out at 16 µM.

A further experiment has as its target T1, Dihydroorotate dehydrogenase (fumarate) (Leishmania major) (UniProt Q4QEW7).
T1 sequence (whole entry): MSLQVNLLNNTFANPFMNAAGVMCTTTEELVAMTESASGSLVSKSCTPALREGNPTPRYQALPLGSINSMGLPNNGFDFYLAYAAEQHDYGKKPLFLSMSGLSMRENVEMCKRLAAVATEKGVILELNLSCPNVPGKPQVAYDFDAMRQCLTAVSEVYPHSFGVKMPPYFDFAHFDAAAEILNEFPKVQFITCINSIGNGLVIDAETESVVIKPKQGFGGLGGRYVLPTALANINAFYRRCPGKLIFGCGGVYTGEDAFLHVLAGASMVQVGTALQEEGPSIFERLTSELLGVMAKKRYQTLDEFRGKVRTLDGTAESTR
Briefly: Binding affinity to Leishmania major DHODH assessed as change in melting temperature at 500 uM by SYPRO orange dye-based differential scanning fluorimetry.
Details: not given
With `C=C(C)C(=O)O[C@H]1C[C@@]2(C)OC(=CC2=O)/C(CO)=C\[C@H]2OC(=O)C(=C)[C@H]12` [GOIAZENSOLIDE], the ΔTm was -4.19 °C.

The subject of the next experiment is Trypanosoma brucei rhodesiense. Briefly: Antitrypanosomal activity against Trypanosoma brucei rhodesiense STIB 900 trypomastigotes after 72 hrs by Alamar Blue assay. In kind it is functional, organism-based. Particulars: STIB 900, 72 h. On the technique in general: The colour change of resazurin is a common sign of viable cells or microbes.
Turning to `O=C(O)/C=C/c1ccc(O)c(O)c1` [CAFFEIC ACID], inhibition was half-maximal at 6.11 µM (IC50).

A further experiment addresses T1, Dihydroorotate dehydrogenase (fumarate) (Leishmania major). Kind of experiment: Binding affinity to Leishmania major DHODH assessed as change in melting temperature at 100 uM by SYPRO orange dye-based differential scanning fluorimetry.
Details: not given
Background: DSF heats the sample and reads unfolding from a dye or from intrinsic fluorescence.
For `C=C(C)C(=O)O[C@H]1C[C@@]2(C)OC(=CC2=O)/C(CO)=C\[C@H]2OC(=O)C(=C)[C@H]12` [GOIAZENSOLIDE], the thermal shift (ΔTm) is -0.73 °C.

The subject of another experiment is Leishmania donovani. Briefly: Antileishmanial activity against Leishmania donovani MHOM/ET/67/L82 amastigotes after 72 hrs by Alamar Blue assay. In kind it is functional, organism-based. Particulars: MHOM/ET/67/L82, 72 h.
Take `O=C(O)/C=C/c1ccc(O)c(O)c1` [CAFFEIC ACID]: the half-maximal inhibitory concentration (IC50) stood at 31.1 µM.

A further experiment concerns the target T1, Dihydroorotate dehydrogenase (fumarate) (Leishmania major). Briefly: Binding affinity to Leishmania major DHODH assessed as change in melting temperature at 1000 uM by SYPRO orange dye-based differential scanning fluorimetry.
Details: not given
On to `C=C(C)C(=O)O[C@H]1C[C@@]2(C)OC(=CC2=O)/C(CO)=C\[C@H]2OC(=O)C(=C)[C@H]12` [GOIAZENSOLIDE], for which the shift in melting temperature (ΔTm) was -6.51 °C.

The test system of the next experiment is Leishmania donovani. Kind of experiment: Antileishmanial activity against Leishmania donovani amastigotes. It is filed as functional, organism-based.
Details: not given
As to `C=C(C)C(=O)O[C@H]1C[C@@]2(C)OC(=CC2=O)/C(CO)=C\[C@H]2OC(=O)C(=C)[C@H]12` [GOIAZENSOLIDE], the IC50 worked out at 0.45 µM.

The target of the next experiment is T1, Dihydroorotate dehydrogenase (fumarate) (Leishmania major). Briefly: Binding affinity to Leishmania major DHODH assessed as change in melting temperature at 100 uM by differential scanning fluorimetry-based ThermoFMN assay.
Details: not given
Turning to `C=C(C)C(=O)O[C@H]1C[C@@]2(C)OC(=CC2=O)/C(CO)=C\[C@H]2OC(=O)C(=C)[C@H]12` [GOIAZENSOLIDE], the ΔTm is -0.32 °C.

A further experiment has as its target T2, Dihydroorotate dehydrogenase (fumarate) (Leishmania major, UniProt Q4QEW7).
T2 sequence (Q4QEW7 whole entry): T1 sequence (whole entry)
Kind of experiment: Inhibition of recombinant oligo-histidine-tagged Leishmania major DHODH expressed in Escherichia coli BL21(DE3) cells using DHO as substrate measured after 60 secs. Particulars: read-out: IC50.
As to `O=C(/C=C/c1ccc(O)c(O)c1)O[C@H]1[C@H](O)C[C@](O)(C(=O)O)C[C@H]1OC(=O)/C=C/c1ccc(O)c(O)c1`, the IC50 is 73.2 µM.

Turning to `CN1[C@@H]2C[C@H](OC(=O)[C@H](CO)c3ccccc3)C[C@H]1[C@@H]1O[C@@H]12`, the IC50 was 795 µM.

Take `C=C(C)C(=O)O[C@H]1C[C@@]2(C)OC(=CC2=O)/C(C)=C\[C@H]2OC(=O)C(=C)[C@H]12`: the IC50 is 278 µM.

For `O=C(O)/C=C/c1ccc(O)c(O)c1` [CAFFEIC ACID], the IC50 came to 1750 µM.

On to `C=C(C)C(=O)O[C@H]1C[C@@]2(C)OC(=CC2=O)/C(CO)=C\[C@H]2OC(=O)C(=C)[C@H]12` [GOIAZENSOLIDE], for which the IC50 came to 156 µM.

The next experiment concerns Trypanosoma brucei. Kind of experiment: Antitrypanosomal activity against Trypanosoma brucei TC221 trypomastigotes after 24 hrs by Alamar Blue assay. In kind it is functional, organism-based. Particulars: TC221, 24 h.
`CN1[C@@H]2C[C@H](OC(=O)[C@H](CO)c3ccccc3)C[C@H]1[C@@H]1O[C@@H]12` came in with an IC50 greater than 100 µM.

The target in a further experiment is Dihydroorotate dehydrogenase (quinone), mitochondrial (Homo sapiens) (UniProt Q02127). Briefly: Inhibition of human DHODH at 100 uM.
Chain of Dihydroorotate dehydrogenase (quinone), mitochondrial (Homo sapiens) (Q02127 whole entry): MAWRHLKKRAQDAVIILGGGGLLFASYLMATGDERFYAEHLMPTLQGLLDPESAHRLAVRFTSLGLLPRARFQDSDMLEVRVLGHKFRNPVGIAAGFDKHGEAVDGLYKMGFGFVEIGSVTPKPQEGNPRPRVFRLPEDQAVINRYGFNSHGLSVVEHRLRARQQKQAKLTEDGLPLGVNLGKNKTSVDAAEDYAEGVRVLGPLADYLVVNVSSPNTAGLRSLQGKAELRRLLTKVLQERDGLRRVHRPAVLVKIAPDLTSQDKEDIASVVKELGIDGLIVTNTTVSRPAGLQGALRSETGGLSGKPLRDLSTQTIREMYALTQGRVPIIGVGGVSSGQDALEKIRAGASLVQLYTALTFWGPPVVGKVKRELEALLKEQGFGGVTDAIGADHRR
Details: not given
As for `O=C(/C=C/c1ccc(O)c(O)c1)O[C@H]1[C@H](O)C[C@](O)(C(=O)O)C[C@H]1OC(=O)/C=C/c1ccc(O)c(O)c1`, the inhibition worked out at 10%.

For another experiment, the target named is T1, Dihydroorotate dehydrogenase (fumarate) (Leishmania major). Briefly: Binding affinity to Leishmania major DHODH assessed as change in melting temperature at 500 uM by differential scanning fluorimetry-based ThermoFMN assay.
Details: not given
As to `C=C(C)C(=O)O[C@H]1C[C@@]2(C)OC(=CC2=O)/C(CO)=C\[C@H]2OC(=O)C(=C)[C@H]12` [GOIAZENSOLIDE], the ΔTm was -0.84 °C.

The target is the same in the next experiment. Briefly: Inhibition of recombinant oligo-histidine-tagged Leishmania major DHODH expressed in Escherichia coli BL21(DE3) cells at 100 uM using DHO as substrate measured after 60 secs.
Details: not given
As to `O=C(/C=C/c1ccc(O)c(O)c1)O[C@H]1[C@H](O)C[C@](O)(C(=O)O)C[C@H]1OC(=O)/C=C/c1ccc(O)c(O)c1`, the inhibition came to 38%.

For a further experiment, the system named is Trypanosoma cruzi. Kind of experiment: Antitrypanosomal activity against Trypanosoma cruzi Tulahuen C2C4 trypomastigotes infected in rat skeletal myoblasts L-6 cells after 96 hrs by CPRG/Nonidet reagent based spectrophotometric method. In kind it is functional, organism-based. Particulars: Tulahuen C2C4, L6, 96 h.
Turning to `O=C(O)/C=C/c1ccc(O)c(O)c1` [CAFFEIC ACID], the IC50 stood at 167 µM.

Another experiment concerns the target T1, Dihydroorotate dehydrogenase (fumarate) (Leishmania major). Kind of experiment: Binding affinity to Leishmania major DHODH assessed as change in melting temperature at 1000 uM by differential scanning fluorimetry-based ThermoFMN assay.
Details: not given
As to `C=C(C)C(=O)O[C@H]1C[C@@]2(C)OC(=CC2=O)/C(CO)=C\[C@H]2OC(=O)C(=C)[C@H]12` [GOIAZENSOLIDE], the ΔTm is -1.13 °C.

Another experiment deals with Leishmania amazonensis. Briefly: Antileishmanial activity against Leishmania amazonensis MHOM/BR/77/LTB 0016 amastigotes infected in mouse peritoneal macrophages after 72 hrs by staining-based assay. It is filed as functional, organism-based. Particulars: MHOM/BR/77/LTB 0016, 72 h.
With `CN1[C@@H]2C[C@H](OC(=O)[C@H](CO)c3ccccc3)C[C@H]1[C@@H]1O[C@@H]12`, the concentration for half-maximal inhibition (IC50) was greater than 25 µM.

The subject of another experiment is Trypanosoma brucei rhodesiense. Kind of experiment: Antitrypanosomal activity against Trypanosoma brucei rhodesiense STIB900 trypomastigotes. It is filed as functional, organism-based.
Details: not given
`C=C(C)C(=O)O[C@H]1C[C@@]2(C)OC(=CC2=O)/C(CO)=C\[C@H]2OC(=O)C(=C)[C@H]12` [GOIAZENSOLIDE] came in with an IC50 of 0.07 µM.

The term IC50 denotes the concentration that gives 50% inhibition. The ΔTm is the change in melting temperature against a reference sample. For orientation: inhibition means the share of the control response that was lost under treatment.
